The values that follow come from publication PMC11755336 (Journal of Pharmaceutical Analysis, 2024).

Read-outs that look alike come from different tables or passages of the source.

For data set [1], the target named is recombinant MAO-A from human (Homo sapiens, UniProt P21397). Kind of data set: SPR affinity detection with MAO-A. The data set is classed as binding.
Data set [2] concerns BV2 cells. Kind of data set: Aβ phagocytosis assay in BV2 cells. It counts as cell-based, mice. To be noted: versus control group.
Data set [3] concerns the target MAO-A (Homo sapiens, UniProt P21397). Kind of data set: MAO-A inhibition rate, enhanced Weissbach's method. It counts as biochemical.
The conditions of data set [4]: rats, oral KXS 10 mL/kg (4 g/mL), 8 days.
Data set [5] has as its target AChE (Homo sapiens, UniProt P22303). As to the kind of experiment: biochemical. It counts as biochemical.
The target of data set [6] is AChE (Electrophorus electricus, UniProt O42275). As to the kind of experiment: biochemical. The data set is classed as binding.
Chain of AChE (Electrophorus electricus, UniProt O42275) (O42275 24-633): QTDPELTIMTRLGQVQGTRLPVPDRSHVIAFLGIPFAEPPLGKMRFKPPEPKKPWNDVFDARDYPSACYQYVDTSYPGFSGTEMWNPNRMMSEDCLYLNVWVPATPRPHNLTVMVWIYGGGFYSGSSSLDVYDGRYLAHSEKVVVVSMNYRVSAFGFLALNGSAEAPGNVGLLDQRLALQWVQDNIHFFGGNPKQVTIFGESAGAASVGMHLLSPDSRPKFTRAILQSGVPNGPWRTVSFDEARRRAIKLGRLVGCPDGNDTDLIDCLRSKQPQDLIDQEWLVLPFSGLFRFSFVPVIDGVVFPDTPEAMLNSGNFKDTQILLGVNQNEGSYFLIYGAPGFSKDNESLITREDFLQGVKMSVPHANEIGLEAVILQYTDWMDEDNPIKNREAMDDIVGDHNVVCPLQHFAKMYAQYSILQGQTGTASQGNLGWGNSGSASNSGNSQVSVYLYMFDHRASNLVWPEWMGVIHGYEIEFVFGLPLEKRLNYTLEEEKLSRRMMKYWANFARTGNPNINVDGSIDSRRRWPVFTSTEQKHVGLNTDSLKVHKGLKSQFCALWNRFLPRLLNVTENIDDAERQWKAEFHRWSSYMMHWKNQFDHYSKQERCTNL

Chain of MAO-A (P21397 whole entry): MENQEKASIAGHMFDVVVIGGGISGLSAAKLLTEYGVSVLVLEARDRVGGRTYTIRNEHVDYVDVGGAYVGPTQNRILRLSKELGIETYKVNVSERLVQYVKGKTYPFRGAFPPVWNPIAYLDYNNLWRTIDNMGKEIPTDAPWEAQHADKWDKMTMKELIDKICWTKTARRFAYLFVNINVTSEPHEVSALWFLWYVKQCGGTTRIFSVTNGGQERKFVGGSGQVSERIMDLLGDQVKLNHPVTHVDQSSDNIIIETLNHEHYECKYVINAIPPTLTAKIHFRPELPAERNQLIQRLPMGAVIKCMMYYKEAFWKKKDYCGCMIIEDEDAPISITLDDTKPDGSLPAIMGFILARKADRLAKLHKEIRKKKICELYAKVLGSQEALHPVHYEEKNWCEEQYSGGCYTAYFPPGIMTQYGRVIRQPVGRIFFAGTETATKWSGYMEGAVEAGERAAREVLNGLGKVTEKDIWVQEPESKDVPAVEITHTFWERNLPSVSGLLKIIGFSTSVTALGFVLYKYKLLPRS
Chain of recombinant MAO-A from human (P21397 whole entry): as above

`C=CCc1cc(OC)c(OC)c(OC)c1` [Elemicin]: the Kd in data set [1] came to 4.69 µM. Moreover, the “phagocytic ability of BV2 cells towards FITC-Aβ1−42 (fluorescence intensity)” value (“phagocytic ability” for short) in data set [2] is recorded as “significantly enhanced phagocytic ability”. In data set [3], the half-inhibitory concentration (IC50) came to 62.2 ± 1.08 µM. Further, the “MAO-A inhibition rate (in words)” value in data set [3] (concentrations up to 50 μM) was “comparable inhibition rate”.

On to `C/C=C\c1cc(OC)c(OC)cc1OC` [β-asarone], for which, in data set [2], the “phagocytic ability” value is “notable improvements in phagocytic activity”. Moreover, in data set [4], the “detection in brain tissue” value was “found in brain samples”.

In the case of `CCCCCCCCCCCCCCCC(=O)OC` [methyl palmitate], the AChE inhibition rate entry in data set [5] is given as “exceeding 80%”. The “phagocytic ability” value in data set [2] is given as “effectively enhanced the phagocytic capability”.

Take `C#CCN(C)CCCOc1ccc(Cl)cc1Cl` [Clorgyline, reference compound]: the “MAO-A inhibition rate (in words)” value in data set [3] is recorded as “highest inhibition rate”.

In the case of `COc1cc2c(=O)c3c(O)c([C@@H]4O[C@H](CO)[C@@H](O)[C@H](O)[C@H]4O)c(O)cc3oc2cc1O` [7-O-methylmangiferin], the “inhibitory effect on AChE (in words)” value in data set [5] is “relatively low”. Also, in data set [5] (read-out: AChE IC50), the IC50 is 2.98 ± 0.245 µM. The Kd in data set [6] (read-out: AChE Affinity KD) worked out at 16.9 µM.

Consider `C/C=C/c1cc(OC)c(OC)cc1OC` [α-asarone], for which, in data set [2], the “phagocytic ability” value is listed as “notable improvements in phagocytic activity”. For the same molecule, the “detection in brain tissue” value in data set [4] is “found in brain samples”.

Regarding `C=CCc1ccc(OC)cc1` [Estragole], the Kd in data set [1] was 2.35 µM. Also, in data set [2], the “phagocytic ability” value is reported as “notable improvements in phagocytic activity”. Besides, the IC50 in data set [3] came to 144 ± 7.43 µM.

Consider `C=CCc1ccc(OC)c(OC)c1` [Methyl eugenol], for which the Kd in data set [1] came to 5.83 µM. Further, the “phagocytic ability” value in data set [2] is reported as “weaker phagocytic ability”. The IC50 in data set [3] came out at 96.1 ± 9.87 µM.

On to `CC1=CCC(O)(C(C)C)CC1` (stereo not shown) [terpinen-4-ol], for which the “phagocytic ability” value is on record as “effectively enhanced the phagocytic capability” in data set [2] and “weaker phagocytic ability” in data set [2] (listed as terpiene-4-ol).

On to `CC(C)(C)c1ccc(O)c(C(C)(C)C)c1` [2,4-Di-tert-butylphenol], for which, in data set [5], the IC50 was 4.51 ± 0.191 µM. The “AChE inhibitory rate compared with galantamine” value in data set [5] (25 μM) was “surpassed that of galantamine”. Further, in data set [2], the “phagocytic ability” value is on record as “notable improvements in phagocytic activity”. For the same molecule, in data set [6], the Kd was found to be 0.133 µM.

As to `CC12CCC(CC1=O)C2(C)C` (stereo not shown) [Camphor], in data set [5], the AChE inhibition rate result is “exceeding 80%” and it took 6.23 ± 0.567 µM to reach half-maximal inhibition (IC50). For the same molecule, in data set [2], the “phagocytic ability” value is given as “effectively enhanced the phagocytic capability”. The molecule further gave a Kd in data set [6] of 0.0251 µM.

In the case of `O=c1c2cc(O)ccc2oc2cc(O)c([C@@H]3O[C@H](CO)[C@@H](O)[C@H](O)[C@H]3O[C@@H]3OC[C@](O)(CO)[C@H]3O)c(O)c12` [Sibiricaxanthone B], the Kd in data set [6] (read-out: AChE Affinity KD) stood at 1.2 µM.

The molecule `C/C=C/c1ccc(OC)c(OC)c1` [Methyl isoeugenol] gave an IC50 in data set [5] of 9.68 ± 0.353 µM. In addition, the “phagocytic ability” value in data set [2] is on record as “weaker phagocytic ability”. The molecule also displayed a Kd in data set [6] of 0.0185 µM.
